These results are taken from PMC5779043 (Journal of the American Heart Association: Cardiovascular …, 2017).

Assay [1] deals with intraluminal occlusion of the middle cerebral artery (MCA). Description: Grip test after MCA occlusion. The class given is in vivo, Sprague-Dawley rats. The settings on record: 7 and 14 days after ischemia, 12 nmol/kg i.v. before MCA occlusion, n=8/group.
Assay [2] relates to intracerebral hemorrhage and traumatic brain injury. The settings on record: intravenous administration; cited from earlier work.

In the case of human BNP [hBNP], the “grip test vs control” value in assay [1] is “no differences were observed”.
In the case of nesiritide, in assay [2], the cerebral blood flow result was “improved the cerebral blood flow”; the functional outcome is reported as “better functional outcome”; the “inflammation and brain injury” value is “reduced the inflammation and brain injury”.
